Patent publication US7528138B2, “Pyrazolo[1,5-a]pyrimidines useful as inhibitors of protein kinases” (Vertex Pharmaceuticals Incorporated, priority 2004, dated 2009)

Assays:
Assay type in all cases: biochemical
Itk = molecular target: T1, Itk (Homo sapiens, UniProt Q08881); experiment: ITK Inhibition Assay (Radiometric), radioactive-phosphate incorporation; conditions: enzyme inhibition data (Ki), Table 11; radiometric or UV assay not stated
T1 sequence (Q08881 1-620): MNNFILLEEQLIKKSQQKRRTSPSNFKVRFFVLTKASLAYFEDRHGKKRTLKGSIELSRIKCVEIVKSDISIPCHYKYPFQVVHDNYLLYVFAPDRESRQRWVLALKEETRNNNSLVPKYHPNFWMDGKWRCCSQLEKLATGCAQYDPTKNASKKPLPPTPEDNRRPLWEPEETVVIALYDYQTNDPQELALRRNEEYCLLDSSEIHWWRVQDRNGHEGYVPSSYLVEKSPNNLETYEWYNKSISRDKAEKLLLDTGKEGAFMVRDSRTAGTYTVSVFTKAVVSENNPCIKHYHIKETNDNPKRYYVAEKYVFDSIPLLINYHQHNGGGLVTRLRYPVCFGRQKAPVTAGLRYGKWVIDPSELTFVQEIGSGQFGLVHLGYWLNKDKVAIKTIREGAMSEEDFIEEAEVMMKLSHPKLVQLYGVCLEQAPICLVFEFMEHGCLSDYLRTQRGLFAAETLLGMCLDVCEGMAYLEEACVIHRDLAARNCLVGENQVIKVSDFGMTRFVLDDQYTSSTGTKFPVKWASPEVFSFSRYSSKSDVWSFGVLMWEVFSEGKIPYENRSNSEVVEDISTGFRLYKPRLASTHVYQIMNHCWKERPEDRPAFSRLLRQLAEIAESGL
Experimental: Assays are carried out in a mixture of 20 mM MOPS (pH 7.0), 10 mM MgCl2, 0.1% BSA and 1 mM DTT. Final substrate concentrations in the assay are 7.5 μM [γ-33P]ATP (400 mCi 33P ATP/mmol ATP, Amersham Pharmacia Biotech/Sigma Chemicals) and 3 μM peptide (SAM68 protein D332-443). Assays are carried out at 25° C. in the presence of 50 nM Itk. An assay stock buffer solution is prepared containing all of the reagents listed above, with the exception of ATP and the test compound of interest. 50 μL of the stock solution is placed in a 96 well plate followed by addition of 2 μL of DMSO stock containing serial dilutions of the test compound (typically starting from a final concentration of 50 μM with 2-fold serial dilutions) in duplicate (final DMSO concentration 2%). The plate is pre-incubated for 10 minutes at 25° C. and the reaction initiated by addition of 50 μL [γ-33P]ATP (final concentration 7.5 μM).
The reaction is stopped after 10 minutes by the addition of […] 0.2M phosphoric acid+0.01% TWEEN 20. A multiscreen phosphocellulose filter 96-well plate (Millipore, Cat no. MAPHN0B50) is pretreated with 100 μL 0.2M phosphoric acid +0.01% TWEEN 20 prior to the addition of […] of the stopped assay mixture. The plate is washed with 4×200 μL 0.2M phosphoric acid+0.01% TWEEN 20. After drying, 30 μL Optiphase ‘SuperMix’ liquid scintillation cocktail (Perkin Elmer) is added to the well prior to scintillation counting (1450 Microbeta Liquid Scintillation Counter, Wallac).
Ki(app) data are calculated from non-linear regression analysis of the initial rate data using the Prism software package (GraphPad Prism version 3.0cx for Macintosh, GraphPad Software, San Diego Calif., USA).

JAK3 = molecular target: T2, JAK3 (Homo sapiens, UniProt P52333); experiment: JAK3 Inhibition Assay, 33P incorporation; conditions: enzyme inhibition data (Ki), Table 11
T2 sequence (P52333 1-1124): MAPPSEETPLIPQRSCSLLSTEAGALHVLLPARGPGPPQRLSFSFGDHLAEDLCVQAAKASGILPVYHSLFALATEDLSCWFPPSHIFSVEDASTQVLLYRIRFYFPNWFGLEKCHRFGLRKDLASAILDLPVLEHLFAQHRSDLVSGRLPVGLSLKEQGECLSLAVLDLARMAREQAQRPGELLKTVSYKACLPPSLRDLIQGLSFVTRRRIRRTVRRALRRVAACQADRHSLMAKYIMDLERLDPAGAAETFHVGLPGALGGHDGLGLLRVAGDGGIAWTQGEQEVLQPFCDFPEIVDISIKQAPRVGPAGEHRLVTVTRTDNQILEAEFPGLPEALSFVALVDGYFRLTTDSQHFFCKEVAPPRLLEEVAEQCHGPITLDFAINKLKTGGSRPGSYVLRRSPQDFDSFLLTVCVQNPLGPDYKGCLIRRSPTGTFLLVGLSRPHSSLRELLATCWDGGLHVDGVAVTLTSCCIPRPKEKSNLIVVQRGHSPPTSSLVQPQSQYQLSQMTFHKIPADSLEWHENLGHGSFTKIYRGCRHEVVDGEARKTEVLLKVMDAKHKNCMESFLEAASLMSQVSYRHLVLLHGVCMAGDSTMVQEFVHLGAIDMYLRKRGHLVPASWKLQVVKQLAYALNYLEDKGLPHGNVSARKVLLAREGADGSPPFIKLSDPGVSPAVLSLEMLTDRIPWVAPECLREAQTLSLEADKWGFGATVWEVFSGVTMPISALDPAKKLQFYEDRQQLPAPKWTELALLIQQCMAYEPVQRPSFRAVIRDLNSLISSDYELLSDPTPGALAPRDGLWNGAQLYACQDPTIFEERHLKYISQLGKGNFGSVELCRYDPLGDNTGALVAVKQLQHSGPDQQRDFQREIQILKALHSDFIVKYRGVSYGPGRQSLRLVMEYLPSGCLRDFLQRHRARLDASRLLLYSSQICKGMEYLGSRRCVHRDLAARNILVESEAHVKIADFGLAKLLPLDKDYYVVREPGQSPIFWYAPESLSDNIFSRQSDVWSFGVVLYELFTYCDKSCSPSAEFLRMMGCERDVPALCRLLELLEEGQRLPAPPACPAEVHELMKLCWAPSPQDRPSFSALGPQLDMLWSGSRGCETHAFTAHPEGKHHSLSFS
Experimental: Reactions are carried out in a kinase buffer containing 100 mM HEPES (pH 7.4), 1 mM DTT, 10 mM MgCl2, 25 mM NaCl, and 0.01% BSA. Substrate concentrations in the assay are 5 μM ATP (200 uCi/μmole ATP) and 1 μM poly(Glu)4Tyr. Reactions are carried out at 25° C. and 1 nM JAK3. To each well of a 96 well polycarbonate plate is added 1.5 μl of a candidate JAK3 inhibitor along with 50 μl of kinase buffer containing 2 μM poly(Glu)4Tyr and 10 μM ATP. This is then mixed and 50 μl of kinase buffer containing 2 nM JAK3 enzyme is added to start the reaction. After 20 minutes at room temperature (25 C), the reaction is stopped with 50 μl of 20% trichloroacetic acid (TCA) that also contained 0.4 mM ATP. The entire contents of each well are then transferred to a 96 well glass fiber filter plate using a TomTek Cell Harvester. After washing, 60 μl of scintillation fluid is added and ^33P incorporation detected on a Perkin Elmer TopCount.

c-Met = c-Met (Homo sapiens, UniProt P08581); experiment: c-Met Inhibition Assay, coupled enzyme system; conditions: enzyme inhibition data (Ki), Table 11
Chain of c-Met (P08581 25-1390): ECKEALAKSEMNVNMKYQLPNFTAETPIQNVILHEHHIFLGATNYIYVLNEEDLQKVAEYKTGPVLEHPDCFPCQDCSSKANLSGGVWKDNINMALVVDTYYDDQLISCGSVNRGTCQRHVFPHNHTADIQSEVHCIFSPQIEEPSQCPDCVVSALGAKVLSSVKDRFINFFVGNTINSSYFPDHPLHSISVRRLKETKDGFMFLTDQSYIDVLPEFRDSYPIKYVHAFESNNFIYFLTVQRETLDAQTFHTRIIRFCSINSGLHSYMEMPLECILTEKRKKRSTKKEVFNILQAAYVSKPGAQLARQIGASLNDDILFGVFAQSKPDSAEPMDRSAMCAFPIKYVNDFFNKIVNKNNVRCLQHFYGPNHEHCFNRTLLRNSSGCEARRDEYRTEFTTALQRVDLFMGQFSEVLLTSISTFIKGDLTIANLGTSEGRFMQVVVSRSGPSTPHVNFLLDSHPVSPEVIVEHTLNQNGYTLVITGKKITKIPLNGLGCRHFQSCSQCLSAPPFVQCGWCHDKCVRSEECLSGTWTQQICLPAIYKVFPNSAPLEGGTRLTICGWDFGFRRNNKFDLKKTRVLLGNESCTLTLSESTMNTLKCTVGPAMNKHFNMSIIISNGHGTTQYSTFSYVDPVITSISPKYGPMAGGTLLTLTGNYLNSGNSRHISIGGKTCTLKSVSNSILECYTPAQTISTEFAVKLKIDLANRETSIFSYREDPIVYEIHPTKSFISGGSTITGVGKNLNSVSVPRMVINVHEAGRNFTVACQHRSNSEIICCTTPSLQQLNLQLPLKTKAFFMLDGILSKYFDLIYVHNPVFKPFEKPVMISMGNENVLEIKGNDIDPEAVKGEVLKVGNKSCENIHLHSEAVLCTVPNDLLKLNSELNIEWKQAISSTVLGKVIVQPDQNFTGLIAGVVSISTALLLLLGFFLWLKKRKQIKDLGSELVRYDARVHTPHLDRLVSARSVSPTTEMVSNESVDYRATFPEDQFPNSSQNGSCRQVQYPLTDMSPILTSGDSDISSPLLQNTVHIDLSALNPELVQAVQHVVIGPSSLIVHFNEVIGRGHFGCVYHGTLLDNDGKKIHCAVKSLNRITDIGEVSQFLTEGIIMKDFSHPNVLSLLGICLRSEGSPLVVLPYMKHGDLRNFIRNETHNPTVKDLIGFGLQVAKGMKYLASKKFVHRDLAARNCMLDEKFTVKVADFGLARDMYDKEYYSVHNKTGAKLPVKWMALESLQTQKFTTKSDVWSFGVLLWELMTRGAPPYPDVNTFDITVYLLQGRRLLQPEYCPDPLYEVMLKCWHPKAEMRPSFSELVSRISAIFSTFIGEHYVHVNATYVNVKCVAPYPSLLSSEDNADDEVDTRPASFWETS
Experimental: Compounds are screened for their ability to inhibit c-Met kinase activity using a standard coupled enzyme system (Fox et al., Protein Sci. 1998, 7, 2249). Reactions are carried out in a solution containing 100 mM HEPES (pH 7.5), 10 mM MgCl2, 25 mM NaCl, 300 μM NADH, 1 mM DTT, and 1.5% DMSO. Final substrate concentrations in the assay are 200 μM ATP (Sigma Chemicals, St Louis, Mo.) and 10 μM polyGluTyr (Sigma Chemical Company, St. Louis). Reactions are carried out at 30° C. and 80 nM c-Met. Final concentrations of the components of the coupled enzyme system are 2.5 mM phosphoenolpyruvate, 300 μM NADH, 30 μg/ml pyruvate kinase and 10 μg/ml lactate dehydrogenase.
An assay stock buffer solution is prepared containing all of the reagents listed above with the exception of ATP and a test compound of the present invention. The assay stock buffer solution (175 μl) is incubated in a 96 well plate with 5 μl of the test compound of the present invention at final concentrations spanning 0.006 μM to 12.5 μM at 30° C. for 10 minutes. Typically, a 12-point titration is conducted by preparing serial dilutions (from 10 mM compound stocks) with DMSO of the test compounds of the present invention in daughter plates. The reaction is initiated by the addition of 20 μl of ATP (final concentration 200 μM). Rates of reaction are obtained using a Molecular Devices Spectramax plate reader (Sunnyvale, Calif.) over 10 minutes at 30° C. The Ki values are determined from the rate data as a function of inhibitor concentration.

SMILES	Ki (Itk)	Ki (JAK3)	Ki (c-Met)
COCCCNC(=O)c1cccc(-c2cnc3c(-c4ccccn4)c(N)nn3c2)n1 [Compound V-108]	500 to 5000 nM	> 5000 nM	< 500 nM
Cc1cnc2c(-c3cc(NC4CCCC4)ncn3)c(N)nn2c1 [Compound V-332]	< 500 nM	500 to 5000 nM	< 500 nM
Nc1nn2cc(-c3ccnc(N4CCN(CCO)CC4)c3)cnc2c1-c1ccccn1 [Compound V-248]	500 to 5000 nM	500 to 5000 nM	< 500 nM
CCN(CCN)c1ccc(-c2cnc3c(-c4ccccn4)c(N)nn3c2)cn1 [Compound V-157]	< 500 nM	> 5000 nM	< 500 nM
Nc1nn2cc(-c3ccncn3)cnc2c1C(=O)N1CCC(O)C1 (centres unmarked) [Compound V-44]	500 to 5000 nM	> 5000 nM	500 to 5000 nM
CC(C)CN(C)C(=O)c1cccc(-c2cnc3c(-c4ccccn4)c(N)nn3c2)n1 [Compound V-125]	500 to 5000 nM	> 5000 nM	< 500 nM
Nc1nn2cc(-c3cccc(C(=O)N4CCC(N)C4)n3)cnc2c1-c1ccccn1 (centres unmarked) [Compound V-119]	500 to 5000 nM	500 to 5000 nM	< 500 nM
CCCN(CCO)c1ccc(-c2cnc3c(-c4ccccn4)c(N)nn3c2)cn1 [Compound V-158]	500 to 5000 nM	> 5000 nM	< 500 nM
CC(C)N1CCN(CCCc2cnc3c(-c4ccccn4)c(N)nn3c2)CC1 [Compound V-331]	500 to 5000 nM	> 5000 nM	500 to 5000 nM
CN(Cc1ccccc1)C(=O)c1c(N)nn2cc(-c3ccncn3)cnc12 [Compound V-41]	500 to 5000 nM	> 5000 nM	500 to 5000 nM
CNC(=O)c1cccc(-c2cnc3c(-c4ccccn4)c(N)nn3c2)n1 [Compound V-118]	500 to 5000 nM	> 5000 nM	< 500 nM
Nc1nn2cc(-c3cccc(C(=O)N4CCCC(O)C4)n3)cnc2c1-c1ccccn1 (centres unmarked) [Compound V-140]	500 to 5000 nM	> 5000 nM	< 500 nM
Nc1ccccc1-c1cnc2c(-c3ccccn3)c(N)nn2c1 [Compound V-20]	500 to 5000 nM	> 5000 nM	500 to 5000 nM
CN(CCc1ccccn1)C(=O)c1cccc(-c2cnc3c(-c4ccccn4)c(N)nn3c2)n1 [Compound V-100]	500 to 5000 nM	> 5000 nM	< 500 nM
CN1CCC(N(C)c2ccc(-c3cnc4c(-c5ccccn5)c(N)nn4c3)cn2)CC1 [Compound V-169]	< 500 nM	> 5000 nM	< 500 nM
Cc1cnc2c(-c3cc(N[C@@H]4CCC[C@H]4OCc4ccccc4)ncn3)c(N)nn2c1 [Compound V-336]	500 to 5000 nM	500 to 5000 nM	< 500 nM
CN1CCCN(c2ncccc2-c2cnc3c(-c4ccccn4)c(N)nn3c2)CC1 [Compound V-267]	500 to 5000 nM	> 5000 nM	500 to 5000 nM
Nc1nn2cc(-c3cccc(CCl)c3)cnc2c1-c1ccccn1 [Compound V-210]	< 500 nM		
N#Cc1ccc(-c2cnc3c(-c4ccccn4)c(N)nn3c2)cc1 [Compound V-196]	< 500 nM		
Cc1ccn2nc(N)c(-c3ccccc3)c2n1 [Compound V-1]		> 5000 nM	
COc1ccc(-c2cnc3c(-c4ccc(C)cn4)c(N)nn3c2)cc1 [Compound V-220]	500 to 5000 nM		
Nc1nn2cc(-c3ccc(C=O)cc3)cnc2c1-c1ccccn1 [Compound V-193]	< 500 nM		
CCN(CC)C(=O)C1CCCN(c2cc(-c3c(N)nn4cc(C)cnc34)ncn2)C1 (centres unmarked) [Compound V-338]	500 to 5000 nM		< 500 nM
Nc1nn2cc(-c3ccc(N4CCCC4)nc3)cnc2c1-c1ccccn1 [Compound V-143]	500 to 5000 nM	> 5000 nM	
Cc1cnc2c(-c3cc(N[C@H](C)c4ccccc4)ncn3)c(N)nn2c1 [Compound V-300]	500 to 5000 nM		< 500 nM
Nc1nn2cc(-c3ccc(CCl)cc3)cnc2c1-c1ccccn1 [Compound V-203]	< 500 nM		
Nc1nn2cc(-c3cccc(C(=O)N4CCC(N5CCCC5)CC4)n3)cnc2c1-c1ccccn1 [Compound V-121]	500 to 5000 nM	> 5000 nM	
COc1ccc(-c2cn3nc(N)c(-c4ccccn4)c3nc2C(F)(F)F)cc1 [Compound V-218]	500 to 5000 nM		
Cc1cnc2c(-c3cc(N[C@@H](C)c4ccccc4)ncn3)c(N)nn2c1 [Compound V-301]	500 to 5000 nM		500 to 5000 nM
